These are literature values, as cited in article PMC11237654, “Optimization of quenched fluorescent peptide substrates of SARS-CoV-2 3CL^pro main protease (Mpro) from proteomic identification of P6—P6' active site specificity” (Journal of Virology, 2024).

Broadly, the kcat/KM is the second-order rate constant that governs catalysis at low substrate concentration.

Square brackets hold non-standard residues; d marks the D form. * marks the point of attachment. ACC = NC(=O)Cc1cc(=O)oc2cc(N*)ccc12; Tle = CC(C)(C)[C@H](N)C(=O)O; Abu = CC[C@H](N)C(=O)O

In this series the target is SARS-CoV-2 3CL^pro (Severe acute respiratory syndrome coronavirus 2, UniProt P0DTD1, Q3569A). Particulars: cited from earlier work.

Take Ac-[Abu][Tle]LQ-{ACC}: the kcat/KM is 859 M⁻¹ s⁻¹.
